# Data reported in patent US5977144A (priority 1997, dated 1999).
# “Also recorded” adds a separate entry of the source. Read-outs that look alike come from different tables or passages of the source.
# Columns and labels:
# PC12 cells [1] = format: cell-based; settings: Table 4
# rat alpha7 receptor [2] = biological target: T1, rat alpha7 receptor (Rattus norvegicus, UniProt Q05941); assay: cell-based; parameters: Oocytes Antagonist: unit not given here; settings: for IC50: ACh applied 5 min after compound, read-out: IC50, antagonism subsequent to agonist activity; for Oocytes Antagonist: Table 4; for alpha 7 antagonism: % of antagonism of acetylcholine administered after drug: xenopus oocytes
# Procedure: FIG. 13B. Effects of chronic injections of DMXB or nicotine on high affinity [^3 H]ACh or [^125 I]α-bungarotoxin (BTX) binding in rat neocortices. Adult male rats were injected with saline vehicle, 1 mg/kg DMXB or 0.2 mg/kg nicotine (NIC) (IP) daily for 2 weeks. At that time, neocortices were removed and assayed for high affinity [^3 H]ACh or [^125 I]α-bungarotoxin binding as described in the text. […] Responses of rat α7 AChR to 3-CA, 2-MeOCA and 4-MeOCA. […] All responses are expressed relative to the oocyte-response to 500 μM ACh applied 5 min prior to the experimental agonist application.
# (§1) Oocytes were prepared and recordings made as described previously (de Fiebre, et al., 1995). Frogs were anesthetized by submersion in 0.1% (3)-aminobenzoic acid ethyl ester and several lobes of the ovary surgically removed through a small incision in the abdomen wall. Oocytes were freed from the follicle cells by treatment with collagenase (in calcium-free Barth's solution: 88 mM NaCl, 1 mM KCl, 15 mM Hepes pH 7.6, 0.33 mM MgSO4, 0.1 mg/ml gentamicin sulfate) for 2 hr at room temperature and Stage 5 oocytes were isolated. Oocytes were rinsed and stored at 18° C. in Barth's saline (88 mM NaCl, 1 mM KCl, 15 mM Hepes pH 7.6, 0.3 mM Ca(NO3)2, 0.41 mM CaCl2, 0.82 mM MgSO4, 0.1 mg/ml gentamicin sulfate) before and after microinjection with RNA. Microinjection was conducted with a Drummond Scientific "Nanoject Variable" automatic injector. Oocytes were injected with a 50 nl solution of specified rat nicotinic subunit mRNA species (2-10 mg/ml; derived from the cDNA containing HIP 306 plasmid kindly provided by Dr. Jim Boulter, Salk Institute) and incubated 2-7 days at 18° C. before electrophysiological recording. electrophysiological recordings, oocytes were perfused in a Warner Instruments RC-8 recording chamber with a perfusion solution containing 115 mM NaCl, 2.5 mM KCl, 10 mM Hepes pH 7.2, 1.8 mM CaCl2 and 1 μM atropine to block muscarinic responses. Perfusion was continuous at a rate of 10 ml/min. Drags were diluted in perfusion solution and applied using a solenoid valve to switch from perfusion to drug solutions. Current responses to drug administration were studied under two electrode voltage clamp at a holding potential of -70 mV using a Dagan Corp. TEV-200 voltage clamp connected to a 386-SX IBM computer using a TL-1 DMA interface (Axon Instruments). Micropipettes were filled with 3 M KCl and had resistances of 0.5-2 MOhms. Drug responses are analyzed with PClamp software (Axon Instruments). Oocytes with resting potentials of less than -30 mV were rejected.
# (§2) Antagonist properties subsequent to agonist activity were measured as a decrease in responsiveness to ACh applied 5 min after compound-application, normalized to ACh application instead of the anabaseine-derivative (FIG. 13A AND FIG. 13B).
# [3] = biological target: T2, alpha4beta2 receptor (cytisine binding, rat brain membranes) (Rattus norvegicus, UniProt P09483+P12390); assay: biochemical; settings: 1 μM (Table 2); read-out: alpha4beta2 binding: % inhibition of cytistine binding
# T2 construct: from tissue; host or cells: rat brain membranes
# From the text: Further, the cinnamylidene-anabaseines displaced high affinity cytisine binding to rat brain membranes with lower affinity than other types of benzylidene-anabaseines. These observations are consistent with the cinnamylidene-anabaseines having some selectivity for alpha7 receptor subtypes over other types of nicotinic receptors, especially alpha4beta2 receptors, based on the types of receptors to which alpha-bungarotoxin and cytisine bind to in brain.
# rat alpha4beta2 receptor [4] = biological target: T3, rat alpha4beta2 receptor (Rattus norvegicus, UniProt P09483+P12390); assay: Activation of alpha4beta2 receptors expressed in Xenopus oocytes; format: cell-based; settings: Table 4; read-out: Oocytes Agonist α4
# Procedure: FIG. 14A. Responses of α4β2 ACHR to 3-CA, 2-MeOCA or 4-MeOCA. Concentration-response relationships for the peak agonist activated currents of oocytes injected with RNA coding for rat α4β2 subunits. Responses are first expressed relative to the response to 10 μM ACh, applied 5 min before drug-application, then normalized to the maximum response obtainable with ACh so that a response of 1 represents full efficacy. The ratio between 10 μM ACh and maximum ACh response was determined in separate experiments.
# as §1
# rat alpha4beta2 receptor [5] = biological target: T3, rat alpha4beta2 receptor; assay: Antagonism of alpha4beta2 receptors in oocytes (residual inhibition of ACh response after drug); format: cell-based; settings: xenopus oocytes
# Procedure: as §1, with “Micropipettes were filled with 3 M KCl and had resistances of 0.5-2 MOhms.” left out, “Oocytes with resting potentials of less than -30 mV were rejected.” left out
# as §2
# rat alpha7 receptor [6] = biological target: T1, rat alpha7 receptor; assay: cell-based; settings: for α7 receptor activation (in words): oocyte expression system; for EC50: oocytes, read-out: α7 EC50
# Procedure: FIG. 13A. Effects of chronic injections of DMXB or nicotine on high affinity [^3 H]ACh or [^125 I]α-bungarotoxin (BTX) binding in rat neocortices. Adult male rats were injected with saline vehicle, 1 mg/kg DMXB or 0.2 mg/kg nicotine (NIC) (IP) daily for 2 weeks. At that time, neocortices were removed and assayed for high affinity [^3 H]ACh or [^125 I]α-bungarotoxin binding as described in the text. […] Responses of rat α7 ACHR to 3-CA, 2-MeOCA and 4-MeOCA. Concentration-response relationships for the peak agonist activated currents of oocytes injected with RNA coding for the rat α7 subunit. All responses were initially measured relative to the individual oocyte-response to 500 μM ACh, applied 5 min prior to drug-application. Responses were normalized relative to the maximum response obtainable with ACh so that a response of 1 represents full efficacy. The ratio of 500 μM ACh control response to ACh maximum was taken from Papke et al., 1997.
# as §1
# rat alpha4beta2 receptor [7] = biological target: T3, rat alpha4beta2 receptor; assay: Activation of alpha4beta2 receptors expressed in Xenopus oocytes; format: cell-based; settings: read-out: alpha4beta2 activation: % response observed with 10 μM acetylcholine
# [8] = biological target: alpha7 receptor (high affinity alpha-bungarotoxin binding, rat brain membranes) (Rattus norvegicus, UniProt Q05941); assay: biochemical; settings: for IC50: rat brain membranes, read-out: IC50, [125I]α-bungarotoxin binding
# PC12 cells [9] = format: cell-based; settings: for neurite protection during NGF-deprivation (in words): 10 μM; for Neurite Counts: 10 μM (NGF 100 ng/ml), 4 days after removal of serum and NGF, mean±SEM, * p<0.05
# Procedure: PC12 cell-culture methods were modified from Greene and Tischler (1976). Cells were plated at 30-40% confluence and grown in Dulbecco's Modified Eagle Medium containing 10% heat-inactivated horse serum, 5% fetal bovine serum, 100 units/ml penicillin, 100 μg/ml streptomycin and 0.5 mM 1-glutamine. Cultures were maintained at 37° C., […] /6% CO2 and 90-92% humidity in culture plates pre-coated with poly-1lysine (10 g/L). Cultures were maintained for 7 days in serum-supplemented medium to which 100 ng/ml rat 2.5S NGF was added at day 1. On day 7, conditioned medium was replaced serum-free medium containing specified drugs. Four days later, cell density was estimated using the NIH Image program version 1.47 and number of neurite-expressing cells counted manually in blind fashion as described previously (Martin et al., 1994). A Nikon inverted microscope (100× magnification) was attached to a Mac II computer via a monochrome video camera (Cohu, Inc., San Diego, Calif.). Four random areas were counted per plate and there were 4 plates per treatment group, unless otherwise indicated. Neurites were defined as processes at least 2× the length of the perikaryon. To assess the reliability of the image analyses, a reticle was used for direct quantification of cells in the same view as the one analyzed in random samples.
# PC12 cells were differentiated for 1 week with NGF. Drugs were administered for the 4 day interval after removal of serum and NGF. Neuites were counted and expressed as the mean±SEM of at least 3 plates/group.
# rat alpha7 receptor [10] = biological target: T1, rat alpha7 receptor; settings: literature; cited from earlier work
# [11] = system: animal models of learning and memory; settings: animals; cited from earlier work
# rat alpha7 receptor [12] = biological target: T1, rat alpha7 receptor; settings: cited from earlier work
# [13] = system: alpha7 nicotinic receptors
# [14] = system: cholinesterase-staining cells in the nucleus basalis; settings: rat, in vivo
# Procedure: Passive avoidance behavior was measured in nucleus basalis lesioned rats after intraperitoneal (IP) injections of drugs (base weight) or 0.9% saline diluent. For lesions, male 5 month old Sprague Dawley rats were anesthetized with 30 mg/kg sodium pentobarbital (IP) and then infused bilaterally with 1 μl of 5 μg/μl ibotenic acid in phosphate buffered saline, pH 7.4, into the nucleus basalis as described previously (17). Infusion coordinates were anterior 7.0 mm, lateral 2.6 mm and vertical 6.5 mm according to Paxinos and Watson (Paxinos and Watson, 1986).
# Histological assessments of the ibotenic acid placements in the nucleus basalis were made after behavioral measurements, using cholinesterase staining in formalin-fixed tissues.
# [15] = Table 4, read-out: Oocytes Agonist α7
# [16] = read-out: alpha7 activation: % response observed with 500 μM acetylcholine
# [17] = 1 μM (Table 2), read-out: alpha7 binding: % inhibition of alphabungarotoxin binding
# [18] = Table 4, read-out: Receptor Binding α7
# Sequence of alpha7 receptor (high affinity alpha-bungarotoxin binding, rat brain membranes) (Q05941 23-502): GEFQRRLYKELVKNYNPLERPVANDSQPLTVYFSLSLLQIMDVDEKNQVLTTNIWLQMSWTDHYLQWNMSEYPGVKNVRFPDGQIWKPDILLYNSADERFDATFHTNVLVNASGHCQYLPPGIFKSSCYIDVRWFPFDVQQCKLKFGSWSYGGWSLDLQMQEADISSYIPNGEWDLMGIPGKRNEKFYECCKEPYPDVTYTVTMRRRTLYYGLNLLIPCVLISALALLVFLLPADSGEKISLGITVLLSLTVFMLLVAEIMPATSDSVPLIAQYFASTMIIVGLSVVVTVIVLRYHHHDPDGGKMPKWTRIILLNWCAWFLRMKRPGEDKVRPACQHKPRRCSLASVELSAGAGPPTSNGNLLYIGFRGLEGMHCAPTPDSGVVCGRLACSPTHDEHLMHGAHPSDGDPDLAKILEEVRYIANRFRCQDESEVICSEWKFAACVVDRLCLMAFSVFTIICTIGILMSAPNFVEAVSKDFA
# T1 sequence (Q05941 23-502): as above
# T3 sequence (P09483 31-630): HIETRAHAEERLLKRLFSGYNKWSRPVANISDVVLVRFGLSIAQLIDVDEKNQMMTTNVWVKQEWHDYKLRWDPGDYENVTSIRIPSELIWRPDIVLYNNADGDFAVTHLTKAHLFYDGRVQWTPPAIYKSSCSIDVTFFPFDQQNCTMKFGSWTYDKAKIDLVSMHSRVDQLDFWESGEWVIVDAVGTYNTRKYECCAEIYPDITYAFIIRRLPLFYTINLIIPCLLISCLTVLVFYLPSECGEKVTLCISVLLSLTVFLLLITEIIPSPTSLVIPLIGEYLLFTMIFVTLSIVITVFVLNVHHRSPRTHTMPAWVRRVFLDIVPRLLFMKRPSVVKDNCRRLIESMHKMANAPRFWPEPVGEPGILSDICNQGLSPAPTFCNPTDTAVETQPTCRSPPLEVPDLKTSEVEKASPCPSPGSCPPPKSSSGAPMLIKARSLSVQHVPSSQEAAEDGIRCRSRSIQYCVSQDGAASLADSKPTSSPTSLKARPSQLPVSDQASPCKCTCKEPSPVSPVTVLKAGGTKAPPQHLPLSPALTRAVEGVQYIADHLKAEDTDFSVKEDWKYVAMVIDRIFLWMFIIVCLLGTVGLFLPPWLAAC
# T3 sequence (P12390 25-500): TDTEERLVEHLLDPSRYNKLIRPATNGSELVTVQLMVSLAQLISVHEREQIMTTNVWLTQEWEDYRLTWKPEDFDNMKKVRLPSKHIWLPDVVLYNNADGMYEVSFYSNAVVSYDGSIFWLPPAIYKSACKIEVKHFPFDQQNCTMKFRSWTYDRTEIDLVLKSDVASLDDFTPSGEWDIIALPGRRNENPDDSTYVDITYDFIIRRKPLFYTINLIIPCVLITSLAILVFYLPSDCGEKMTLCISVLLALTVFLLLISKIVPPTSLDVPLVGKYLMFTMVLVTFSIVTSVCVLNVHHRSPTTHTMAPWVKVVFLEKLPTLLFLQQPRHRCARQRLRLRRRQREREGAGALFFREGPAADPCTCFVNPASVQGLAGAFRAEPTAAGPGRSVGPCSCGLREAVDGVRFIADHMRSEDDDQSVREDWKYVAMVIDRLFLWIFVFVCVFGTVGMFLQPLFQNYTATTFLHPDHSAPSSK
# T2 sequence (P09483 31-630): as the sequence (P09483 31-630) above
# T2 sequence (P12390 25-500): as the sequence (P12390 25-500) above
Structure (SMILES),IC50 (rat alpha7 receptor [2]),Oocytes Antagonist (rat alpha7 receptor [2]),alpha 7 antagonism: % of antagonism of acetylcholine administered after drug (rat alpha7 receptor [2]),inhibition at 1 µM [3],Emax (rat alpha4beta2 receptor [4]),alpha4beta2 antagonism: % of antagonism of acetylcholine administered after drug (rat alpha4beta2 receptor [5]),selectivity α7 over α4β2 (in words) (rat alpha7 receptor [6]),Emax (rat alpha7 receptor [6]; [15]),α7 receptor activation (in words) (rat alpha7 receptor [6]),EC50 (rat alpha7 receptor [6]),Emax (rat alpha7 receptor [6]; [16]),Emax (rat alpha4beta2 receptor [7]),"inhibition at 1 µM [8, 17]","inhibition at 1 µM [8, 18]",IC50 [8],neurite protection during NGF-deprivation (in words) (PC12 cells [9]),Neurite Counts (PC12 cells [9]),further results
"C(=C\c1ccccc1)/C=C1\CCCN=C1c1cccnc1 [3-CA, E,E-3-(Cinnamylidene)anabaseine]",15 ± 6 µM,.50,45,6.2%,2.6%,10,selectively activate α7 receptors over α4β2,92%,fully efficaciously,3.2 ± 0.7 µM,92%,< 3%,94.7%,94.7%,0.08 µM,neuroprotective against neurite-loss during NGF-deprivation; also recorded: protected against NGF-deprivation neurite loss; also recorded: exhibited cytoprotective activity; also recorded: effective,185 ± 19,"PC12 Cyto. (PC12 cells [1]): +?; inhibition of α7 receptors, estimated (rat alpha7 receptor [2]; 10 μM, estimated from oocyte results): less than 20%; inhibition at 10 µM (rat alpha7 receptor [2]; 10 μM, ACh application 5 min later, read-out: long term inhibition of α7 receptors): < 20%"
"COc1ccc(/C=C/C=C2\CCCN=C2c2cccnc2)cc1 [4-MeOCA, E,E-3-(4-Methoxycinnamylidene)anabaseine]",5 ± 2.3 µM,.104,75,32%,< 5%,34,selectively activate α7 receptors over α4β2,45%,fully efficaciously,15.9 ± 7.9 µM,45%,< 2%,94.1%,94.1%,0.054 µM,Neither 2-MeOCA nor 4-MeOCA elicited neurite-protection,155 ± 23,times less potent (α7 activation) (rat alpha7 receptor [6]): 2-3 times
"CN(C)c1ccc(/C=C/C=C2\CCCN=C2c2cccnc2)cc1 [DMAC, E,E-3-(4-dimethylaminocinnamylidene) anabaseine]",–,–,–,–,–,–,–,–,–,–,–,–,–,–,–,–,–,long term inhibition / antagonism of α7 receptors (in words) (rat alpha7 receptor [10]): long term inhibition of α7 receptors following activation; also recorded: potent antagonist activity; memory-related performance (in words) [11]: memory-enhancing activity in rodents; also recorded: effective in this behavioral paradigm; α7 agonist activity (in words) (rat alpha7 receptor [12]; background/literature): fully efficacious and potent α7 agonist; selectivity α7 over α4β2 / other nicotinic subtypes (in words) (rat alpha7 receptor [12]; literature): selectively activate α7 receptors over α4β2
CCO [ethanol],–,–,–,–,–,–,–,–,–,–,–,–,–,–,–,–,–,antagonism of nicotinic receptors by ethanol (in words) [13]: alpha7 nicotinic receptors were sensitive to antagonism by ethanol while other receptor types were not affected
N[C@H](C(=O)O)c1cc(=O)[nH]o1 [ibotenic acid],–,–,–,–,–,–,–,–,–,–,–,–,–,–,–,–,–,reduction of cholinesterase-staining cells in nucleus basalis [14]: over 80%
